Data: article PMC7614775 (Nature chemical biology, 2022)

Key:
TYK2_C838 = TYK2_C838 (Homo sapiens, UniProt P29597); test: Untargeted cysteine MS-ABPP, human PBMCs treated in situ; assay type: binding
SLC66A3_C135 = biological target: T1, SLC66A3_C135 (Homo sapiens, UniProt Q8N755); test: as above; assay type: binding
T1 sequence (Q8N755 20-202): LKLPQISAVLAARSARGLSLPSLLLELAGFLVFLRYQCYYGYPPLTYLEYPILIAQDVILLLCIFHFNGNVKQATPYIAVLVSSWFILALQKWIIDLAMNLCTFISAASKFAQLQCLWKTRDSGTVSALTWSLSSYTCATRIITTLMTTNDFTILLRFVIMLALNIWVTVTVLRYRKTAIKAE

JAK1_C817 = JAK1_C817 (Homo sapiens, UniProt P23458); test: Untargeted cysteine MS-ABPP, human PBMC lysates treated in vitro; assay type: binding; details: PBMC lysate in vitro, 1 h
C816 of mouse JAK1 = C816 of mouse JAK1 (Mus musculus, UniProt P52332); test: Cysteine MS-ABPP in mouse splenocyte lysates; assay type: binding; details: 0.01 µM, 1 h
[1] = tested on: IFNα-stimulated STAT1 phosphorylation; test: Phospho-STAT western blot in 22Rv1 cells expressing JAK1 variants; assay type: cell-based, human
[2] = tested on: prolactin (PRL)-stimulated STAT5 (JAK2-dependent) phosphorylation; test: as above; assay type: cell-based, human; details: 2 µM, 2 h
[3] = biological target: TYK2 phosphorylation (pTYK2) (Homo sapiens, UniProt P29597); test: TYK2 phosphorylation western blot in 22Rv1 cells expressing TYK2 variants; assay type: cell-based; details: WT-TYK2
[4] = tested on: IL-2-dependent STAT5 phosphorylation; test: Phospho-STAT western blot in mouse splenocytes; assay type: cell-based; details: 0.01–0.1 µM
GM-CSF-STAT5 signaling = test: Phospho-STAT western blot in mouse splenocytes; assay type: cell-based
[5] = biological target: JAK1 trans-phosphorylation (Homo sapiens, UniProt P23458); test: Trans-phosphorylation assay in 22Rv1 cells; assay type: cell-based; details: cells expressing active WT-JAK1-FLAG; 2 µM, 2 h
[6] = tested on: IFNα-stimulated human PBMCs; test: Real-Time PCR of interferon-stimulated genes; assay type: cell-based; details: compound 2 h, then IFNα 16 h
[7] = biological target: recombinant TYK2 (WT, C838A) (Homo sapiens, UniProt P29597); test: Gel-based ABPP in 22Rv1 cells; assay type: binding; details: pre-treatment 0.01–1 μM, 2 h, in situ
Chain of recombinant TYK2 (WT, C838A) (P29597 whole entry C838A): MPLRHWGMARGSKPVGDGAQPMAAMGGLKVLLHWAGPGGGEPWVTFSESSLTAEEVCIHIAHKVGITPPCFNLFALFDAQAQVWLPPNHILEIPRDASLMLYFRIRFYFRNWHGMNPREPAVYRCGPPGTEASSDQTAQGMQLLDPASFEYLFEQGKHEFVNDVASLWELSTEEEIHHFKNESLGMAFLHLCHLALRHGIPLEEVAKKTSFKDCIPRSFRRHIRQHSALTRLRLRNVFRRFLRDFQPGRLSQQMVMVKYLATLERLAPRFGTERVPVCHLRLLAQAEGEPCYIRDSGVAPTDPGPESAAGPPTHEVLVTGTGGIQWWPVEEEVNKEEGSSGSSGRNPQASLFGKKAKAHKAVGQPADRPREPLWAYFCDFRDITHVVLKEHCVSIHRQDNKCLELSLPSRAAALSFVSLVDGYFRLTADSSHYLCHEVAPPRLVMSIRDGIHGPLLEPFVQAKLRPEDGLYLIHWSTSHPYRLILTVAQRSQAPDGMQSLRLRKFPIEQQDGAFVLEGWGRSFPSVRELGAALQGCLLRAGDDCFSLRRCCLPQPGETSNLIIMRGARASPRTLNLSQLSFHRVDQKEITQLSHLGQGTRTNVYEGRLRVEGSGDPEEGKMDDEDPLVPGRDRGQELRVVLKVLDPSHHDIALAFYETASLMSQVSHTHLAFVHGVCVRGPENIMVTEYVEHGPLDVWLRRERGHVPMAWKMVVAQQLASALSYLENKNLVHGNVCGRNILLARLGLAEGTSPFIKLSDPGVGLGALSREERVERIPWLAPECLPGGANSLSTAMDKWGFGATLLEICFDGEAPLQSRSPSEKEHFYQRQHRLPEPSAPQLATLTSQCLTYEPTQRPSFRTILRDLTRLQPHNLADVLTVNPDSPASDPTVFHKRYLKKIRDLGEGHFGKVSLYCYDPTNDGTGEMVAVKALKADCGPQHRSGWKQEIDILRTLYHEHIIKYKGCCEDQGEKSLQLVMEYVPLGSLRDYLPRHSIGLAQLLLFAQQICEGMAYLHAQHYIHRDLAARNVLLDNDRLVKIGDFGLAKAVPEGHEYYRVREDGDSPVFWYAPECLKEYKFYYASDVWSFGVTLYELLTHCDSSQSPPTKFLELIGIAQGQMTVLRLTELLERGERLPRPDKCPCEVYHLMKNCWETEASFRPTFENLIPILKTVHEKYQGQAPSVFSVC

Chain of JAK1_C817 (P23458 whole entry): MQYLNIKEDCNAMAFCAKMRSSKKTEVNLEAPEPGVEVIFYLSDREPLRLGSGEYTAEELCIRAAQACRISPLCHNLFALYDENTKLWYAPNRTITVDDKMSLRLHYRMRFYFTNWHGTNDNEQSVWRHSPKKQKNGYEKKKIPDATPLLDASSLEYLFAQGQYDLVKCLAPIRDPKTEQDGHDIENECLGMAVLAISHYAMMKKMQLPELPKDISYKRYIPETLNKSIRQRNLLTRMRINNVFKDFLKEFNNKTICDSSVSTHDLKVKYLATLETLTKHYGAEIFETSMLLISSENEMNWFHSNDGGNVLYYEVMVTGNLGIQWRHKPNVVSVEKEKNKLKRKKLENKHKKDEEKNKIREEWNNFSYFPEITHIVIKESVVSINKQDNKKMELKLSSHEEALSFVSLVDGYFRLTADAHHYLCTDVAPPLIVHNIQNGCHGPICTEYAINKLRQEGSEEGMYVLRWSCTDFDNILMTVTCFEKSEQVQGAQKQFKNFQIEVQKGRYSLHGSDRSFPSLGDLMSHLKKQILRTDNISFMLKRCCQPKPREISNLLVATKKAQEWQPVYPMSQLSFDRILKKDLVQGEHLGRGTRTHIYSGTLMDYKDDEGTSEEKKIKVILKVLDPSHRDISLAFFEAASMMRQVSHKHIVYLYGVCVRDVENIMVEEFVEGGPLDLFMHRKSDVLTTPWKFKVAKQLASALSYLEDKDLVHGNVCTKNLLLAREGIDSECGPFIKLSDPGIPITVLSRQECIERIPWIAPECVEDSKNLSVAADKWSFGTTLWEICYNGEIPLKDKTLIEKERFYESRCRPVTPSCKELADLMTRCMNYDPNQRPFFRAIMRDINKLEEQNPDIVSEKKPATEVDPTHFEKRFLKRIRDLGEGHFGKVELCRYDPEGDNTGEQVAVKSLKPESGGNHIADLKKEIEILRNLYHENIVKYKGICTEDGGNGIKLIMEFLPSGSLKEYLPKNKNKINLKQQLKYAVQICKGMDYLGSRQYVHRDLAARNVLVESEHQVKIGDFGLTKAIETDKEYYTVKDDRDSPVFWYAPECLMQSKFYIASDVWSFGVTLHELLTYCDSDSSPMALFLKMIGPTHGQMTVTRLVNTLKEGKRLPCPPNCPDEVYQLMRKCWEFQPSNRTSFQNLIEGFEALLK
Chain of TYK2_C838 (P29597 whole entry): as the sequence (P29597 whole entry C838A) above, with A838C counted along it
Chain of C816 of mouse JAK1 (P52332 whole entry): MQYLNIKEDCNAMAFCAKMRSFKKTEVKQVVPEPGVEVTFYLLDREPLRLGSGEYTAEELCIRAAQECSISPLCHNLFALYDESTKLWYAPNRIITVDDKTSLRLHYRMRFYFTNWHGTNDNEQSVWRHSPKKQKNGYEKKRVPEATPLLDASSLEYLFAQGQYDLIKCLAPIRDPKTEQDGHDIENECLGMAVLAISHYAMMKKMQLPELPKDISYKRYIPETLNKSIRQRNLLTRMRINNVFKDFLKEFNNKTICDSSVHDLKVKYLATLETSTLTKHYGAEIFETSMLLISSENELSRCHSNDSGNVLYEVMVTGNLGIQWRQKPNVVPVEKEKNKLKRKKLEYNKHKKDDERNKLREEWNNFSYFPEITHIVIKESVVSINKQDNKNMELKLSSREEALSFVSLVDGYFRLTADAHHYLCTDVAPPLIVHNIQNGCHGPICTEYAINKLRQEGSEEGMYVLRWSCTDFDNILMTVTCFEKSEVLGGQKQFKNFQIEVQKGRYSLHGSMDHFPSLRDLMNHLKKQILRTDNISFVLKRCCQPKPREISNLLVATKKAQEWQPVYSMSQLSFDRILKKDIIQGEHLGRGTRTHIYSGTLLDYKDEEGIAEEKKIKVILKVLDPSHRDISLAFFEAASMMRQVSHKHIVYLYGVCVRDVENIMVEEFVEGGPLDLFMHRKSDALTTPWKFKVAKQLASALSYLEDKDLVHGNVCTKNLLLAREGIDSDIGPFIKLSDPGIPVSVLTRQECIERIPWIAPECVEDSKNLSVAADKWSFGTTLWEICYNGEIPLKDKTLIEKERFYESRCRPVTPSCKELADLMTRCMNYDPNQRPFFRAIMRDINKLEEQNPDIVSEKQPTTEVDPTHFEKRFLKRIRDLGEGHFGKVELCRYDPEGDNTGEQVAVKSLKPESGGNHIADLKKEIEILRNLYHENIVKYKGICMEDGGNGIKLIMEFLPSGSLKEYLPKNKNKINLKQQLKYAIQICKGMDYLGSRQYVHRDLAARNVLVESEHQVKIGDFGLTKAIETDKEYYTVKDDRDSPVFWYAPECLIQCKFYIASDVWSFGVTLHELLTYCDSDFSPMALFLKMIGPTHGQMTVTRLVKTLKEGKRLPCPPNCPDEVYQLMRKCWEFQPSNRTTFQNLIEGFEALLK
Chain of JAK1 trans-phosphorylation (P23458 whole entry): as the sequence (P23458 whole entry) above
Chain of TYK2 phosphorylation (pTYK2) (P29597 whole entry): as the sequence (P29597 whole entry C838A) above, with A838C counted along it

Q: With CS(=O)(=O)N1CC[C@H](C#CC(=O)N2CCC[C@@H](c3ccc(Cl)c(Cl)c3)C2)C1 [VVD-118313] as the molecule, how does the “%Engagement” value (TYK2_C838; 0.01 µM) read?
A: 9%

Q: What about the “Engagement Ratio (DMSO/VVD-118313)” value (TYK2_C838; 0.01 µM) of the same molecule?
A: 1.1

Q: And the “Engagement Ratio (DMSO/VVD-118313)” value (TYK2_C838; 0.1 µM)?
A: 5.4

Q: And the “%Engagement” value (TYK2_C838; 1 µM)?
A: 92%

Q: And the “Engagement Ratio (DMSO/VVD-118313)” value (TYK2_C838; 1 µM)?
A: 12.5

Q: What about the “%Engagement” value (TYK2_C838; 10 µM) of the same molecule?
A: 95%

Q: What about the “Engagement Ratio (DMSO/VVD-118313)” value (TYK2_C838; 10 µM) of the same molecule?
A: 18.2

Q: What about the “Engagement Ratio (DMSO/VVD-118313)” value (SLC66A3_C135; 0.01 µM) of the same molecule?
A: 1.0

Q: What about the “%Engagement” value (SLC66A3_C135; 0.1 µM) of the same molecule?
A: 12%

Q: What about the “Engagement Ratio (DMSO/VVD-118313)” value (SLC66A3_C135; 0.1 µM) of the same molecule?
A: 1.1

Q: And the “Engagement Ratio (DMSO/VVD-118313)” value (SLC66A3_C135; 1 µM)?
A: 4.4

Q: And the “%Engagement” value (SLC66A3_C135; 10 µM)?
A: 99%

Q: And the “Engagement Ratio (DMSO/VVD-118313)” value (SLC66A3_C135; 10 µM)?
A: 20.0

Q: What about the “%Engagement” value (JAK1_C817; 0.01 µM) of the same molecule?
A: 81%

Q: What about the “Engagement Ratio (DMSO/VVD-118313)” value (JAK1_C817; 0.01 µM) of the same molecule?
A: 5.1

Q: What about the “%Engagement” value (JAK1_C817; 0.1 µM) of the same molecule?
A: 96%

Q: And the “Engagement Ratio (DMSO/VVD-118313)” value (JAK1_C817; 0.1 µM)?
A: 20.0

Q: What about the “%Engagement” value (JAK1_C817; 1 µM) of the same molecule?
A: 97%

Q: What about the “Engagement Ratio (DMSO/VVD-118313)” value (JAK1_C817; 1 µM) of the same molecule?
A: 20.0

Q: What about the “%Engagement” value (JAK1_C817; 10 µM) of the same molecule?
A: 98%

Q: What about the “Engagement Ratio (DMSO/VVD-118313)” value (JAK1_C817; 10 µM) of the same molecule?
A: 20.0

Q: And the “engagement of mouse JAK1 C816 (% inhibition)” value (C816 of mouse JAK1)?
A: > 90%

Q: What about the “inhibition of IFNα-STAT1 phosphorylation” value ([1]; C817A-JAK1-expressing 22Rv1 cells, up to 2 µM) of the same molecule?
A: < 10%

Q: And the “effect on IFNα-stimulated pSTAT1” value ([1]; WT- or C810A-JAK1-expressing 22Rv1 cells, 2 µM, 2 h)?
A: blocked

Q: What about the “maximal inhibition of IFNα-STAT1 phosphorylation” value ([1]; WT- or C810A-JAK1-expressing 22Rv1 cells, at ~0.2 µM) of the same molecule?
A: > 80%

Q: What about the “effect on PRL-induced STAT5 phosphorylation” value [2] of the same molecule?
A: inactive

Q: And the “effect on phosphorylation of the TYK2 activation loop” value [3]?
A: inhibited

Q: What about the “effect on IL-2-dependent STAT5 phosphorylation” value [4] of the same molecule?
A: inhibited

Q: What about the “effect on GM-CSF-STAT5 signaling” value (GM-CSF-STAT5 signaling) of the same molecule?
A: sparing

Q: And the “effect on trans-phosphorylation of inactive JAK1-HA variants” value [5]?
A: completely blocked

Q: And the “induction of interferon-stimulated genes (OAS1, MX1, IFIT1, CCL2)” value [6]?
A: blocked the induction

Q: What about the “competition of probe 6 reactivity with WT-TYK2” value [7] of the same molecule?
A: blocked probe 6 reactivity
